Values of other authors as cited in patent publication US7872044B2, “Inhibitors of chymase” (Janssen Pharmaceutica NV, priority 2006, dated 2011).

Test system: angiotensin II activity in human vascular extracts
Conditions: background statement

SMILES: NCCCC[C@H](N[C@@H](CCc1ccccc1)C(=O)O)C(=O)N1CCC[C@H]1C(=O)O [lisinopril]
- angiotensin II activity inhibited: about 8%
